The values below are quoted from earlier work in patent US20060116331A1, “Glycosylceramide analogues” (BIOMIRA, INC., priority 2002, published 2006).

“Also recorded” adds a separate entry of the source.

The subject of data set [1] is Vα14 NKT cells. The conditions noted are these: for CD1d-restricted, TCR-mediated activation of Vα14 NKT cells (ability to elicit natural killer cell activity): Kawano et al. (1997); for stimulation of Vα14 NKT cells: structure-activity relationship studies.
The subject of data set [2] is spleen cells. The conditions noted are these: Ijima et al. (1998).
The test system of data set [3] is NKT cells.

As to 3,4-deoxy α-GalCer, the “CD1d-restricted, TCR-mediated activation of Vα14 NKT cells (ability to elicit natural killer cell activity)” value (shortened to “CD1d-restricted, TCR-mediated activation”) in data set [1] is on record as “active”.

For `CCCCCCCCCCCCCCC[C@@H](O)[C@H](CO[C@H]1O[C@H](CO)[C@H](O)[C@H](O)[C@H]1O)NC(=O)CCCCCCCCCCCCC` [AGL-517], the “MLR activity (stimulation of spleen cell proliferation by pretreated DCs)” value in data set [2] is “active”. As for `CCCCCCCCCCCCCCC[C@@H](O)[C@H](CO[C@H]1O[C@H](CO)[C@@H](O)[C@H](O)[C@H]1O)NC(=O)CCCCCCCCCCCCC` [AGL-563], the “MLR activity (stimulation of spleen cell proliferation by pretreated DCs)” value in data set [2] is given as “reduced, but did not abolish, activity”.

For the molecule `CCCCCCCCCCCCCCCCCCCCCCCC(=O)N[C@@H](CO[C@H]1O[C@H](CO)[C@H](O)[C@H](O)[C@H]1O)[C@H](O)[C@H](O)CCCCC` [OCH], in data set [3], the Th1/Th2 bias result is listed as “induces Th2 bias”. Turning to `CCCCCCCCCCCCCCCCCCCCCCCCCC(=O)N[C@@H](CO[C@H]1O[C@H](CO)[C@H](O)[C@H](O)[C@H]1O)[C@H](O)[C@H](O)CCCCCCCCCCCCCC` [α-GalCer, α-galactosylceramide], the “CD1d-restricted, TCR-mediated activation” value in data set [1] was “active; also recorded: most active”. In data set [3], the Th1/Th2 bias entry was “unbiased”.

Consider Galα1-2Galα1-1′Cer, for which the “CD1d-restricted, TCR-mediated activation” value in data set [1] is “active”. Regarding Galα1-4Glcβ1-1′Cer, in data set [1], the “CD1d-restricted, TCR-mediated activation” value was “inactive”. On to Galα1-6Galα1-1′Cer, for which, in data set [1], the “CD1d-restricted, TCR-mediated activation” value is “active”. Galα1-6Glcα1-1′Cer: the “CD1d-restricted, TCR-mediated activation” value in data set [1] is “active”. Take Galβ1-3Galα1-1′Cer: the “CD1d-restricted, TCR-mediated activation” value in data set [1] is on record as “active”. For ceramide, in data set [1], the “CD1d-restricted, TCR-mediated activation” value is “inactive”.

As for α-glucosylceramide [α-GlcCer], in data set [1], the “CD1d-restricted, TCR-mediated activation” value is listed as “active” and the “stimulation of Vα14 NKT cells” value is on record as “readily stimulate”. Take α-mannosylceramide [α-ManCer]: in data set [1], the “CD1d-restricted, TCR-mediated activation” value was “inactive” and the “stimulation of Vα14 NKT cells” value is listed as “failed to stimulate”.
